Measured values reported in patent US20220047556A1 (INSERM (Institut National de la Santé et de la Recherche …, priority 2018, published 2022).

Tests used:
Assay type in all cases: cell-based, human
[1] = tested on: JRT3 cells (TCR-activation marker CD69); assay: JRT3 functional assay: CD69 in JRT3 cells co-cultured with EPCR-expressing HT29 cells; conditions: 24 h, compared to JRT3 cells cultured alone, FIGS. 1N and 1O
Description: The Jurkat T cell line J.RT3-T3.5 (JRT3) stably expressing the human LES-γδ TCR (JRT3-LES) was incubated with the colon cancer cell line HT29 overexpressing the endothelial protein C receptor (HT29-EPCR) (34). The activation of JRT3-LES cells was evaluated by the expression of CD69.

[2] = tested on: PD-1 expression in T cells; assay: PD-1 mRNA levels in PMA/Io-activated T cells, real-time qPCR; conditions: T cells incubated 24 h, FIG. 1H
Excerpt: (H) PD-1 mRNA levels following PMA/Io stimulation of T cells, as assessed by Real-time qPCR. Data are represented as fold change to PMA/Io-activated cells assigned 1. […] Data represented as mean±SEM from 3 (H, J) and 2 (0) independent experiments.
Human colon carcinoma cell lines HT29 (microsatellite-instable (MSI)) and HCT116 (microsatellite-stable (MSS)) cells, BALB/c syngeneic colon carcinoma CT26 cell line, and human T cell lines Jurkat, J.RT3-T3.5 (JRT3), Myla, SeAx and HUT-78, were cultured in DMEM or RPMI 1640 complete media.
(§1) Activation of TCR signaling was performed either with phorbol myristate acetate (PMA) and Ionomycin (Io) or with plate-bound anti-CD3.

NF-κB phosphorylation = assay: phospho-NFκBp65 Western blot and densitometry in T cells after PMA/Io stimulation; conditions: Sulconazole 2 μM, FIG. 1M
[3] = tested on: PD-1 expression in T cells; assay: PD-1 protein expression in PMA/Io-activated T cells, flow cytometry; conditions: T cells incubated 24 h, FIGS. 1I and 1J
Description: as §1
Flow cytometry analyzed were performed on Single cell suspension of hPBMCs and T cells using BD Accuri C6 software, or Diva (BD Biosciences) and FlowJo 9.3.2 (TreeStar) softwares (flow cytometry facility of TBM Core).

PD-1 positive T cells = assay: Immunofluorescence quantification of PD-1 positive T cells; conditions: activated T cells treated 24 h, FIGS. 1K and 1L

## Clc1ccc(CSC(Cn2ccnc2)c2ccc(Cl)cc2Cl)cc1 (centres unmarked) [Sulconazole, 1-[2-[(4-chlorophenyl)methylsulfanyl]-2-(2,4-dichlorophenyl)ethyl]imidazole]
[1]
  CD69 expression and number of CD69 positive cells: increased in the absence or presence of Sulconazole
[2]
  PD-1 expression at the RNA level: repressed PD-1 expression
NF-κB phosphorylation
  NF-κB phosphorylation after PMA/Io stimulation: inhibited
[3]
  PD-1 expression at the protein level: repressed PD-1 expression
PD-1 positive T cells
  reduction of PD-1+ cells: 50%
